From ChEMBL document CHEMBL1201862, “PubChem BioAssay data set” (2004)
Activity calls are given as the source filed them.

Experiments:
Cytochrome P450 3A4 = Cytochrome P450 3A4 (Homo sapiens, UniProt P08684);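 also: CYP3A4 tested as one member of a cytochrome P450 panel screen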
Cytochrome P450 2C19 = Cytochrome P450 2C19 (Homo sapiens, UniProt P33261); test: Cytochrome panel assay with activity outcomes. Panel member name: p450-cyp2c19 Compounds with AC50 equal or less than 10 uM are considered active; type: functional
Sequence of Cytochrome P450 2C19 (P33261 whole entry): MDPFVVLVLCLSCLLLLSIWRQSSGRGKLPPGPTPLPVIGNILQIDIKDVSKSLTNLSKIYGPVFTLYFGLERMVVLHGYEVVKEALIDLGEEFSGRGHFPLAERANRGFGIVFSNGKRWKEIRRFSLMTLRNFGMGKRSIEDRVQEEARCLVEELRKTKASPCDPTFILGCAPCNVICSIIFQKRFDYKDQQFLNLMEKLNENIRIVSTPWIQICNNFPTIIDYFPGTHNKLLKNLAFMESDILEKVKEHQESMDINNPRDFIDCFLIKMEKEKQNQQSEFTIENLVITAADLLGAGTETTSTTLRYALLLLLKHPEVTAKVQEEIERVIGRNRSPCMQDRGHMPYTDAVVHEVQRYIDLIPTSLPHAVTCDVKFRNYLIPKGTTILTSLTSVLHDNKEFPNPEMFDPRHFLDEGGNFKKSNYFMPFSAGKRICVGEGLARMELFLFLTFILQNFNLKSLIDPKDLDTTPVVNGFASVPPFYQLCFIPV

Cytochrome P450 1A2 = target: T1, Cytochrome P450 1A2 (Homo sapiens, UniProt P05177);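 also: PubChem cytochrome P450 panel assay, CYP1A2 panel member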
T1 sequence (P05177 whole entry): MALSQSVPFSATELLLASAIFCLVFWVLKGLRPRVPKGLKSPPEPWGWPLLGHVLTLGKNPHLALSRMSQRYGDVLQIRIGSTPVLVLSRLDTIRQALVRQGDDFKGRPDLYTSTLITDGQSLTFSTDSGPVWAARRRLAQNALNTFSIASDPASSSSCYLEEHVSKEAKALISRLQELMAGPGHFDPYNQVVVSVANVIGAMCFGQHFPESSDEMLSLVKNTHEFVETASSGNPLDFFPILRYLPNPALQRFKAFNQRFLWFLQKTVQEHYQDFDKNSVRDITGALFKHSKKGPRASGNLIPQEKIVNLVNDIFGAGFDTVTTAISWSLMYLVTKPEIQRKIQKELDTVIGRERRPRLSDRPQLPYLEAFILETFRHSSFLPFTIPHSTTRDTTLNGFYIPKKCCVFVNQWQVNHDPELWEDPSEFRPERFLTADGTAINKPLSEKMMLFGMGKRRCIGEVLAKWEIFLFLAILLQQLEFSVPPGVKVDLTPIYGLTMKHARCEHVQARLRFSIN

Hexokinase HKDC1 = target: T2, Hexokinase HKDC1 (Homo sapiens, UniProt Q2TB90); test: SAR analysis of small molecule inhibitors of hexokinase domain containing I (HKDC1). [Related pubchem assays (depositor defined):AID493160, AID493190]; type: functional
T2 sequence (Q2TB90 whole entry): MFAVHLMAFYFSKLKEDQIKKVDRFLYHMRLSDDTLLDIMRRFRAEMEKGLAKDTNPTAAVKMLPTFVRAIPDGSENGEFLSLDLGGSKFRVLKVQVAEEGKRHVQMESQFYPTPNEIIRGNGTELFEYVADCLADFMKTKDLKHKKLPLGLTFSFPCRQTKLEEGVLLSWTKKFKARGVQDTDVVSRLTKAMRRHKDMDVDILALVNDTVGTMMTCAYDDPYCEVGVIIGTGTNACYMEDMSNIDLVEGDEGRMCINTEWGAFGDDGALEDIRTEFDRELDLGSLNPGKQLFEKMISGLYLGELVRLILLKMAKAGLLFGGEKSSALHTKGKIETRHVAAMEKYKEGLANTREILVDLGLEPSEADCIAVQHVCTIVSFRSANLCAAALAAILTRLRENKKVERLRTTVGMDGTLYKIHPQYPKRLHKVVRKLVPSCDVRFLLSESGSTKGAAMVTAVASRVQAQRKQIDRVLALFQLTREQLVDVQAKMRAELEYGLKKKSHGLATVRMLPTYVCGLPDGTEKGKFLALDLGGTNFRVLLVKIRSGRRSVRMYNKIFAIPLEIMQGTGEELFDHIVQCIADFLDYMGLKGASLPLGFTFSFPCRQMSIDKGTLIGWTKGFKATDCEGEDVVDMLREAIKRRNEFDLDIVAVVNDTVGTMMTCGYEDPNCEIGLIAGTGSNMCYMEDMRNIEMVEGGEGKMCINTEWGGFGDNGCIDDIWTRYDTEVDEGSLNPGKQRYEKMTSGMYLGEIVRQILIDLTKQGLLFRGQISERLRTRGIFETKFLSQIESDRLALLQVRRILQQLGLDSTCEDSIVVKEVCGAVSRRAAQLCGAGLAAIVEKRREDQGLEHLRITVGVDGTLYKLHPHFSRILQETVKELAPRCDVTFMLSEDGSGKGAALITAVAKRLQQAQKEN

Hexokinase-1 = target: T3, Hexokinase-1 (Homo sapiens, UniProt P19367); test: SAR analysis of small molecule inhibitors of hexokinase domain containing I (HKDC1) in the hexokinase 1 selectivity assay. [Related pubchem assays (depositor defined):AID493160, AID493190]; type: functional
T3 sequence (P19367 whole entry): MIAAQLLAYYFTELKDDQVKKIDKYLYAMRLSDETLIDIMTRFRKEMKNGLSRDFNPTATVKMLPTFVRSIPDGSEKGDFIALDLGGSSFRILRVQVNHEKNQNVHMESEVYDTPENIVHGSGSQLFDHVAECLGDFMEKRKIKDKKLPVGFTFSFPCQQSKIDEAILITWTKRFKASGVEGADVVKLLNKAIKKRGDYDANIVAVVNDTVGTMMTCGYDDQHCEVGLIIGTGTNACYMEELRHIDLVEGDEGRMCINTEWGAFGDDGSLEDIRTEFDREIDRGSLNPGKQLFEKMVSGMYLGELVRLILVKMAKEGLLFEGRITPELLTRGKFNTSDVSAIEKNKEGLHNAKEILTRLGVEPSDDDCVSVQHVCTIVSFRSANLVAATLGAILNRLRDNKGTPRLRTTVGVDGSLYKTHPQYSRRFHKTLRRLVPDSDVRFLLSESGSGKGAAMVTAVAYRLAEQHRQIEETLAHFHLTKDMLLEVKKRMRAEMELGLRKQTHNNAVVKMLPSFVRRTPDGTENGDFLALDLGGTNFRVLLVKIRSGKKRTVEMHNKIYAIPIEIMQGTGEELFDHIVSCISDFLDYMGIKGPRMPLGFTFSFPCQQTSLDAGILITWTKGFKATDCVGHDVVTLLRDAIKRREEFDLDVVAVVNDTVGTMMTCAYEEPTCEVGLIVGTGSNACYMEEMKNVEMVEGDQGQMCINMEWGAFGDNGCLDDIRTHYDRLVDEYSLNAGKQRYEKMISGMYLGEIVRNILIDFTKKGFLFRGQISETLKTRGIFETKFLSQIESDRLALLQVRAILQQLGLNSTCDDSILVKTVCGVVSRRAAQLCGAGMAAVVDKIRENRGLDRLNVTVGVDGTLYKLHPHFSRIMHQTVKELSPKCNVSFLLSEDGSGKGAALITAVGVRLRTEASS

HeLa = test: ATP-based viability loss in HeLa cells – cell-based, CellTiter-Glo luminescence, cherry-pick samples, cytotoxicity control for MITF activator project, dose response (AID 540259); type: functional; settings: Homo sapiens
Escherichia coli = test: microbe, parasite or virus in culture
Cysteine protease ATG4B = target: T4, Cysteine protease ATG4B (Homo sapiens, UniProt Q9Y4P1); type: functional;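 also: Fluorescence-based dose-response confirmation assay measuring inhibition of ATG4B activity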
T4 sequence (Q9Y4P1 whole entry): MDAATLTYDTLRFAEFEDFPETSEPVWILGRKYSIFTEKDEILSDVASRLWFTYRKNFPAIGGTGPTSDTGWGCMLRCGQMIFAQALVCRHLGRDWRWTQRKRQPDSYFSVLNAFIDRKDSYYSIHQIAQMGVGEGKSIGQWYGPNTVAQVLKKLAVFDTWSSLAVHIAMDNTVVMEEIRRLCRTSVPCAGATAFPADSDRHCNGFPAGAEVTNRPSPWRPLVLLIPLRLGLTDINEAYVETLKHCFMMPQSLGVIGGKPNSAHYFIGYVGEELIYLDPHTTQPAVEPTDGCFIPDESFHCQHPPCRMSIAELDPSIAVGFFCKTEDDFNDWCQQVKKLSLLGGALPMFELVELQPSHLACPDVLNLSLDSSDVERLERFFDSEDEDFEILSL

Phospholipase A2 = Phospholipase A2 (Homo sapiens, UniProt P04054); type: functional;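 also: confirmatory dose-response counterscreen on phospholipase A2, testing hits that came from an ultra-high-throughput screen for ATG4B inhibitors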
Sequence of Phospholipase A2 (P04054 whole entry): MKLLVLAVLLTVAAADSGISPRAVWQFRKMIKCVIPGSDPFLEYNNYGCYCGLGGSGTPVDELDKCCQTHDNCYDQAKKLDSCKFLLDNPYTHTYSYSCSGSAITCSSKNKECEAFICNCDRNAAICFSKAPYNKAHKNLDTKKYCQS

HEK293 [1] = test: cells; settings: Homo sapiens
HEK293 [2] = test: cells; settings: Homo sapiens; remark: listed apart in the source
[3] = target: T5, Ubiquitin-conjugating enzyme E2 N (Homo sapiens, UniProt P61088); type: functional
T5 sequence (P61088 whole entry): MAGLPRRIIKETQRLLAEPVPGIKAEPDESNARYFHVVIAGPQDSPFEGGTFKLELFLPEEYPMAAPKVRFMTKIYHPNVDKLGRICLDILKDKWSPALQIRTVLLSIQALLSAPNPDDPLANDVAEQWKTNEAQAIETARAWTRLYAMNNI

[4] = target: T5, Ubiquitin-conjugating enzyme E2 N; type: functional; remark: listed apart in the source
Bcl-2-related protein A1 = target: T6, Bcl-2-related protein A1 (Mus musculus, UniProt Q07440); type: functional;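 also: confirmatory dose–response counterscreen on Bfl-1, used to check hits from a UBC13 polyubiquitin inhibitor campaign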
T6 sequence (Q07440 whole entry): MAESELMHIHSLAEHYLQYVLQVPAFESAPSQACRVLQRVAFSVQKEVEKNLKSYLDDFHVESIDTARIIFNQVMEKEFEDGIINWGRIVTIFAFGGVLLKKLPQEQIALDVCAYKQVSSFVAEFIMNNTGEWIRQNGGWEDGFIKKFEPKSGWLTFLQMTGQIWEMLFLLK

Vero = test: cells; type: functional; settings: Chlorocebus sabaeus
[5] = NIH-3T3 fibroblast cytotoxicity, dose response, cytotoxicity control, cell-based, fluorescence, Alamar Blue, secondary assay (AID 2327); type: functional;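 also: NIH-3T3 mouse fibroblasts cultured with fluconazole at 8 µg/mL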
[6] = target: ATP-dependent molecular chaperone HSP82 (Candida albicans (strain WO-1) (Yeast), UniProt C4YTQ8); test: steroid-induced GRE reporter decrease in yeast – S. cerevisiae, luminescence, Hsp90 inhibitor project, dose response (AID 2400); type: functional, cell-based;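 also: beta-galactosidase luminescence from glucocorticoid response element reporter as proxy for Hsp90 function; inhibitor potency where signal loss means Hsp90 inhibition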
Sequence of ATP-dependent molecular chaperone HSP82 (C4YTQ8 whole entry): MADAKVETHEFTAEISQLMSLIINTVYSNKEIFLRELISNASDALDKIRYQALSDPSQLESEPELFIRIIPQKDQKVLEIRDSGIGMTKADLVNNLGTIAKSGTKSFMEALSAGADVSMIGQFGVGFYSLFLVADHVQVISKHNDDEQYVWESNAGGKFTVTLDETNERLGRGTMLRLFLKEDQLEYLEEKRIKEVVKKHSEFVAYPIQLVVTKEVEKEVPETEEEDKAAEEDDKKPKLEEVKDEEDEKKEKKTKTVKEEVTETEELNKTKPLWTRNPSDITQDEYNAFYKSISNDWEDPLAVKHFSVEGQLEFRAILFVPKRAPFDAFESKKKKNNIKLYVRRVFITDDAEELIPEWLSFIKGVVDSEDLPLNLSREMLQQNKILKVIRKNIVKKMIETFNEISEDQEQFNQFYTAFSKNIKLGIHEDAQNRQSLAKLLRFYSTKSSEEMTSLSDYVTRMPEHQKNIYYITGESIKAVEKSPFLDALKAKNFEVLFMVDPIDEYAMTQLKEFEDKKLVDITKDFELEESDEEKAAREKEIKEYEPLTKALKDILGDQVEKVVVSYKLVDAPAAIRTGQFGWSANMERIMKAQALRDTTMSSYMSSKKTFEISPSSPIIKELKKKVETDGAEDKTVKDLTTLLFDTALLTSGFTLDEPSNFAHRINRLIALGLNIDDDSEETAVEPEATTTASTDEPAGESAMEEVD

[7] = target: T7, Serine/threonine-protein phosphatase (Candida dubliniensis (strain CD36 / CBS 7987 / NCPF 3949 / NRRLY-17841) (Yeast), UniProt B9W6M3); test: blockers of CaCl2-induced CDRE-lacZ signaling – S. cerevisiae, luminescence, secondary, dose response (AID 2388); type: functional, cell-based;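 also: yeast reporter cells carrying a calcineurin-responsive lacZ construct stimulated with calcium chloride; luminescent beta-galactosidase reporter signal in whole cells rather than isolated phosphatase activity; potency for inhibition where a drop in reporter signal means calcineurin blockade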
T7 sequence (B9W6M3 whole entry): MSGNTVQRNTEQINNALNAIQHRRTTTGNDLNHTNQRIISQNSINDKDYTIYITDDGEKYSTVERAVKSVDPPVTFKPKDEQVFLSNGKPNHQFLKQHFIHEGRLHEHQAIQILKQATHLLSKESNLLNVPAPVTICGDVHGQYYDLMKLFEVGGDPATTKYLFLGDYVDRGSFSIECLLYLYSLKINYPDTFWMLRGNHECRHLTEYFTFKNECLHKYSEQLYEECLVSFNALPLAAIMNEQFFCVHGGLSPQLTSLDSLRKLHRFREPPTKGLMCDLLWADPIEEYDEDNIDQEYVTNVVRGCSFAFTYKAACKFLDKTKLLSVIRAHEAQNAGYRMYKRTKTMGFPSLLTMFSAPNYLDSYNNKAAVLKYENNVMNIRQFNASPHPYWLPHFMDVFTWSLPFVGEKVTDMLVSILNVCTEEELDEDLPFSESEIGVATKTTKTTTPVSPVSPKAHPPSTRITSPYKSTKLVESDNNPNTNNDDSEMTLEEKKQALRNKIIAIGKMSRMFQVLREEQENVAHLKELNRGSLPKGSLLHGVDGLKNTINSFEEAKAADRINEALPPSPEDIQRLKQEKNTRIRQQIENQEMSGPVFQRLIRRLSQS

[8] = fluconazole-exposed Candida albicans growth modulators – fluorescence, retest, confirmation (AID 2467); type: functional, cell-based

Sequence of Cytochrome P450 3A4 (P08684 whole entry): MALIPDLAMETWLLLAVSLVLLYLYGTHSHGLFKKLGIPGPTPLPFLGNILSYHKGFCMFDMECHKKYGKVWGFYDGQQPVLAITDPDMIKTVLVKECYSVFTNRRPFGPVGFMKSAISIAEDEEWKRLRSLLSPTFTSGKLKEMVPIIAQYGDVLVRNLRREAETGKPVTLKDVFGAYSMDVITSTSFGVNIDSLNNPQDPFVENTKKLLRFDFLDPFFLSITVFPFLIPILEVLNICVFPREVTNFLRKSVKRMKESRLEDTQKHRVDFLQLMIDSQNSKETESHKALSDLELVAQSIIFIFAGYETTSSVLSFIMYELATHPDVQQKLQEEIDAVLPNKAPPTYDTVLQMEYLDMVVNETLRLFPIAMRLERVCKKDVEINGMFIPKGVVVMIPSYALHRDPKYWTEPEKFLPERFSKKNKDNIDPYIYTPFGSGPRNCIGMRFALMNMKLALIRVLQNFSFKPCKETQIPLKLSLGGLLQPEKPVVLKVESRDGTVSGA

In the case of `CCNc1ncc2nc(-c3ccc(Cl)cc3)c(=O)n(Cc3ccc(F)cc3)c2n1`, the AC50 (Cytochrome P450 3A4) is reported as “inconclusive”, the AC50 (Cytochrome P450 2C19) is reported as “inconclusive” and the AC50 (Cytochrome P450 1A2) is reported as 12.6 µM (inconclusive).
For `COc1cc2c(cc1OC)-c1cc(NCc3ccc4c(c3)OCO4)nc(=O)n1CC2`, the IC50 (Hexokinase HKDC1) was > 80 µM (inactive) and the IC50 (Hexokinase-1) was > 80 µM (inactive).
With `O=C(CNc1cccc(F)c1)N1CCc2ccccc2C1` the AC50 (HeLa) was 157 µM (active).
For `Cc1ccc(C)c(N2CCN(c3ccc4cc(S(=O)(=O)N5CCCCC5)ccc4n3)CC2)c1`, the AC50 (Escherichia coli) was 27.6 µM (active).
With `CN(C)c1ccc(/C=C/c2nc3ccccc3c(=O)n2Cc2ccccc2)cc1` the IC50 (Hexokinase HKDC1) was > 80 µM (inactive) and the IC50 (Hexokinase-1) was > 80 µM (inactive).
In the case of `c1ccc(CSc2nnc3c(n2)OC(c2ccco2)Nc2ccccc2-3)cc1` (centres undefined), the IC50 (Cysteine protease ATG4B) is reported as 43 µM (inactive) and the IC50 (Phospholipase A2) is reported as 40.1 µM (inactive).
With `CCC(=O)NCCc1nc2cc(NC(=O)c3ccc(Cl)cc3)ccc2n1C` the AC50 (HeLa) was 250 µM (active).
In the case of `Cc1ccc(NC(=O)CSCC(=O)Nc2ccccc2N2CCCCC2)cc1`, the EC50 (HEK293 [1]) is reported as > 59.6 µM (inactive) and the EC50 (HEK293 [2]) is reported as > 59.6 µM (inactive).
For `Cc1ccc(/C=C/c2nc3ccccc3c(=O)n2Cc2ccccc2)cc1`, the IC50 (Hexokinase HKDC1) was > 80 µM (inactive) and the IC50 (Hexokinase-1) was > 80 µM (inactive).
In the case of `O=C(CCc1nc2cccnc2n1Cc1ccccc1)N1CCOCC1`, the AC50 (Escherichia coli) is reported as 28.4 µM (active).
For `Cc1cc(C)cc(OCC(=O)NNC(=S)NC(=O)C2CC2)c1`, the IC50 [3] was 7.6 µM (active), the IC50 [4] was 7.38 µM (active) and the IC50 (Bcl-2-related protein A1) was > 20 µM (inactive). For the same compound, the CC50 (Vero) was > 25 µM (active), the EC50 [5] was 43.5 µM (active) and the EC50 [6] was 17.8 µM (active). For the same compound, the EC50 [7] was > 180 µM (inactive) and the EC50 [8] was 0.962 µM (active).
For `CCOC(=O)c1c(CSc2ccccc2)n(C)c2cc(Br)c(O)c(CN(C)C)c12` [UMIFENOVIR], the EC50 (HEK293 [1]) was > 59.7 µM (inactive) and the EC50 (HEK293 [2]) was > 59.7 µM (inactive).
With `COc1ccc(N(CC(=O)NCc2ccc(Cl)cc2)S(=O)(=O)c2ccccc2[N+](=O)[O-])c(OC)c1` the AC50 (Escherichia coli) was 23.3 µM (active).
With `Cc1cc(C(=O)CN2C(=O)NC3(CCCCC3C)C2=O)c(C)n1Cc1cccs1` (centres undefined) the AC50 (HeLa) was > 350 µM (inactive).
